Reference: ChEMBL document CHEMBL4138105, “LL-37-derived short antimicrobial peptide KR-12-a5 and its d-amino acid substituted analogs with cell selectivity, anti-biofilm activity, synergistic effect with conventional antibiotics, and anti-inflammatory activity” (Eur J Med Chem, 2017)
Values after ≈ are worked out from the molar mass of the structure shown. Active and inactive are the calls of the source. The calls are words filed in the database; no cut-off is given here.

Key:
Bacillus subtilis = assay: Antibacterial activity against Bacillus subtilis KCTC 3068 after 24 hrs; assay type: functional; conditions: KCTC 3068, 24 h
NIH3T3 = assay: Cytotoxicity against mouse NIH/3T3 cells up to 128 uM after 48 hrs by MTT assay; assay type: cell-based; conditions: nih3t3, 48 h
RAW264.7 = assay: Anti-inflammatory activity in mouse RAW264.7 cells assessed as reduction in LPS-induced MCP-1 mRNA expression at 10 uM after 3 hrs by RT-PCR analysis; assay type: functional, cell-based
Pseudomonas aeruginosa [1] = assay: Antibacterial activity against multidrug-resistant Pseudomonas aeruginosa CCARM 2095 after 24 hrs; assay type: functional; conditions: CCARM 2095, 24 h
Staphylococcus aureus [2] = assay: Antibacterial activity against Staphylococcus aureus KCTC 1621 in presence of 150 mM NaCl after 24 hrs; assay type: functional; conditions: KCTC 1621, 24 h
Staphylococcus aureus [3] = assay: Antibacterial activity against Staphylococcus aureus KCTC 1621 in presence of 4.5 mM KCl after 24 hrs; assay type: functional; conditions: KCTC 1621, 24 h
Staphylococcus aureus [4] = assay: Antibacterial activity against Staphylococcus aureus KCTC 1621 in presence of 2.5 mM CaCl2 after 24 hrs; assay type: functional; conditions: KCTC 1621, 24 h
Pseudomonas aeruginosa [5] = assay: Synergistic antibacterial activity against multidrug-resistant Pseudomonas aeruginosa CCARM 2095 after 72 hrs in presence of oxacillin by chequerboard assay; assay type: functional
[6] = Hemolytic activity in human RBC at 96 uM after 1 hr relative to control; assay type: ADME, cell-based, Erythrocyte; conditions: red blood cells (RBC, erythrocytes), read-out: Activity
Pseudomonas aeruginosa [7] = assay: Potency index, ratio of LL-37 MIC to compound MIC for multidrug-resistant Pseudomonas aeruginosa CCARM 2095; assay type: functional
Enterococcus faecium [8] = assay: Potency index, ratio of LL-37 MIC to compound MIC for Vancomycin-resistant Enterococcus faecium ATCC 51559; assay type: functional
Staphylococcus aureus [9] = assay: Potency index, ratio of melittin MIC to compound MIC for methicillin resistant Staphylococcus aureus CCARM 3089; assay type: functional
Pseudomonas aeruginosa [10] = assay: Potency index, ratio of melittin MIC to compound MIC for multidrug-resistant Pseudomonas aeruginosa CCARM 2109; assay type: functional
Enterococcus faecium [11] = assay: Potency index, ratio of melittin MIC to compound MIC for Vancomycin-resistant Enterococcus faecium ATCC 51559; assay type: functional
Pseudomonas aeruginosa [12] = assay: Potency index, ratio of LL-37 MBIC90 to compound MBIC90 for antibiofilm activity against multidrug-resistant Pseudomonas aeruginosa CCARM 2095; assay type: functional

SMILES	MIC (Bacillus subtilis)	Activity (NIH3T3)	Activity (RAW264.7)	MIC (Pseudomonas aeruginosa [1])	MIC (Staphylococcus aureus [2])	MIC (Staphylococcus aureus [3])	MIC (Staphylococcus aureus [4])	fractional inhibitory concentration index (FICI) (Pseudomonas aeruginosa [5])	hemolysis at 1 h, 96 µM [6]	Ratio (Pseudomonas aeruginosa [7])	Ratio (Enterococcus faecium [8])	Ratio (Staphylococcus aureus [9])	Ratio (Pseudomonas aeruginosa [10])	Ratio (Enterococcus faecium [11])	fold change (FC) (Pseudomonas aeruginosa [12])
CC[C@H](C)[C@H](NC(=O)[C@H](CC(C)C)NC(=O)[C@H](CCCCN)NC(=O)[C@@H](NC(=O)[C@@H](NC(=O)[C@H](CCCNC(=N)N)NC(=O)[C@@H](N)CCCCN)[C@@H](C)CC)C(C)C)C(=O)N[C@@H](CC(C)C)C(=O)N[C@@H](CCCCN)C(=O)N[C@@H](Cc1c[nH]c2ccccc12)C(=O)N[C@@H](CC(C)C)C(=O)N[C@@H](CCCNC(=N)N)C(N)=O	8 µM (≈ 12.5 µg/mL)	Non-Toxic	Active	16 µM (≈ 25 µg/mL)	2 µM	2 µM	2 µM	0.375	50%	2 - 4	2 - 4	2 - 4	2 - 4	2 - 4	4 - 8
CC[C@H](C)[C@H](NC(=O)[C@H](CCCNC(=N)N)NC(=O)[C@@H](N)CCCCN)C(=O)N[C@H](C(=O)N[C@@H](CCCCN)C(=O)N[C@@H](CC(C)C)C(=O)N[C@H](CC(C)C)C(=O)N[C@@H](CC(C)C)C(=O)N[C@@H](CCCCN)C(=O)N[C@@H](Cc1c[nH]c2ccccc12)C(=O)N[C@@H](CC(C)C)C(=O)N[C@@H](CCCNC(=N)N)C(N)=O)C(C)C	2 µM (≈ 3.13 µg/mL)	Non-Toxic	Active	8 µM (≈ 12.5 µg/mL)	4 µM	2 µM	4 µM	0.3125	–	2 - 4	2 - 4	2 - 4	2 - 4	2 - 4	4 - 8
CC[C@H](C)[C@H](NC(=O)[C@H](CC(C)C)NC(=O)[C@@H](CCCCN)NC(=O)[C@@H](NC(=O)[C@@H](NC(=O)[C@H](CCCNC(=N)N)NC(=O)[C@@H](N)CCCCN)[C@@H](C)CC)C(C)C)C(=O)N[C@@H](CC(C)C)C(=O)N[C@@H](CCCCN)C(=O)N[C@@H](Cc1c[nH]c2ccccc12)C(=O)N[C@@H](CC(C)C)C(=O)N[C@@H](CCCNC(=N)N)C(N)=O	8 µM (≈ 12.5 µg/mL)	Non-Toxic	Active	8 µM (≈ 12.5 µg/mL)	2 µM	2 µM	4 µM	0.375	–	2 - 4	2 - 4	2 - 4	2 - 4	2 - 4	4 - 8
CC[C@H](C)[C@H](NC(=O)[C@H](CCCNC(=N)N)NC(=O)[C@@H](N)CCCCN)C(=O)N[C@H](C(=O)N[C@@H](CCCCN)C(=O)N[C@H](CC(C)C)C(=O)N[C@H](C(=O)N[C@@H](CC(C)C)C(=O)N[C@@H](CCCCN)C(=O)N[C@@H](Cc1c[nH]c2ccccc12)C(=O)N[C@@H](CC(C)C)C(=O)N[C@@H](CCCNC(=N)N)C(N)=O)[C@@H](C)CC)C(C)C	4 µM (≈ 6.26 µg/mL)	Non-Toxic	Active	8 µM (≈ 12.5 µg/mL)	8 µM	2 µM	8 µM	0.5	–	2 - 4	2 - 4	2 - 4	2 - 4	2 - 4	4 - 8
